{"source": "patent US10154961B2", "about": "“Pomegranate oil for preventing and treating neurodegenerative diseases” (Hadasit Medical Research Services and Development Ltd., priority 2012, dated 2018)", "tested_on": "fibroblast isolated from TgMHu2ME199K mice", "format": "cell-based", "data": [{"molecule": "CCCC\\C=C/C=C/C=C\\CCCCCCCC(=O)O", "note": "[punicic acid]", "values": [{"measurement": "effect on copper toxicity, percentage of cell survival", "result": "significantly inhibited the toxic effect of cooper"}]}]}
